Reference: article PMC8696986, “Synthesis and evaluation of 3′-[^18F]fluorothymidine-5′-squaryl as a bioisostere of 3′-[^18F]fluorothymidine-5′-monophosphate” (RSC Advances, 2021)
Like-named read-outs stand apart in the source and are kept apart here. Values belong to the compound of their own block, whether it stands above or below them.

Assays:
[1] = set-up: method as in PMID 12217356, PMID 27319940; conditions: cited from earlier work
[2] = cited from earlier work
[3] = In vitro metabolite analysis in human liver microsomes; assay type: in vitro ADME; conditions: HLM, 37 °C, over 60 min
Method: A published method for performing in vitro metabolite analysis using liver microsomes was adapted.[35] [^18F]SqFLT (40 μL, 3.5 MBq) was added to human liver microsomes (50 μL, 1 mg mL^−1), NADPH regeneration system A (50 μL), NADPH regeneration system B (10 μL) and PBS (400 μL, 0.1 M) in a 1.5 mL microcentrifuge tube. The mixture was gently vortexed and incubated in aerobic conditions at 37 °C with gentle shaking for either 30 min or 60 min using a thermomixer. The mixture was transferred into a 15 mL plastic centrifuge tube and proteins were precipitated with ice-cold MeCN + 0.1% TFA (2 mL) and vortexed. Proteins were pelleted by centrifugation (12 000g, 3 min), and the supernatant removed and filtered (0.2 μm). The supernatant was diluted (1 : 9) with H2O + 0.1% TFA and injected onto a HPLC instrument bearing a 1 mL injection loop and PosiRam (LabLogic, Sheffield, UK) metabolite detector. Samples of a known volume were taken from the supernatant and the entire protein pellet were counted using an auto-gamma counter (Perkin Elmer, London, UK) to determine the extraction efficiency. All experiments were performed in triplicate (n = 3).
(§1) 6.0 Metabolite analysis in microsomes
Figure 31. Representative HPLC chromatograms showing A) parent [18F]SqFLT, and incubation of [18F]SqFLT with HLM for B) 30 mins and C) 60 mins. The extraction efficiency was 96.1 ± 0.4 %. […]

WT HCT116 tumours = test: Dynamic PET imaging, WT HCT116 xenografts; assay type: in vivo, female BALB/c athymic nude mice
Method: (§2) Female BALB/c athymic nude mice (6–8 weeks old), injected subcutaneously with either mutant HCT116^shTMPK− or WT HCT116 (Charles River UK Ltd., Margate, UK) at 5 × 10^6 cells per mouse, using dynamic PET imaging (Fig. 5A). Inoculations were performed under 2% isoflurane/O2 anesthesia 7 days after animal arrival. All mice were aged 10–16 weeks with similar weight (20 ± 2 g) and kept under standard conditions in individually ventilated cages (maximum of 6 animals per cage) prior to experiments.
(§3) BALB/c mice (Charles River UK Ltd, Margate, UK) were anesthetized and scanned on a dedicated small animal PET scanner (G4 Genesis, Sofie Biosciences, Culver City, CA, USA) following a bolus injection of 0.75 MBq of [^18F]SqFLT via a lateral tail vein cannula. Imaging was performed under 2% isoflurane/O2 anaesthesia. After tracer injection, emission scans were acquired in list-mode format (over 0–60 min – dynamic scans) to give decay-corrected values of radioactivity accumulation in tissues. The collected data were reconstructed with a 3-dimensional maximum likelihood estimation method 3D ML-EM (Sofie Biosciences). Cumulative images of the data were used for visualization of radiotracer uptake and to define tissue volumes of interest (VOIs) using Siemens Inveon Research Workplace software (Siemens Molecular Imaging, Inc. Knoxville, USA). Tissue radioactivity uptake values were normalized to injected dose and mouse weight.

[4] = test system: TK1 and ENT1/2 ([^18F]FLT uptake in HCT116 cells); test: In vitro competition assay between [^18F]FLT and thymidine/[^19F]SqFLT; assay type: cell-based, human
Method: HCT116 were plated and maintained at 60–70% confluence in complete media conditions as previously described. […] Treated cells were incubated at 37 °C for 20 min before [^18F]FLT was added to each well to yield a final concentration of 0.74 mBq per well. Cells were subsequently incubated in a humidified atmosphere of 5% CO2 for 1 h before being lysed and gamma counted as previously described.
as §1
Figure 31. Representative HPLC chromatograms showing A) parent [18F]SqFLT, and incubation of [18F]SqFLT with HLM for B) 30 mins and C) 60 mins.
The experiment was performed in triplicate (n = 3)
7.0 Gene structure and positions of CRISPR and PCR primers.
Figure 32. Diagram (not to scale) indicates overall gene structure and positions of the CRISPRS […]
8.0 Determining if [18F]SqFLT is a substrate for TK1 and ENT1/2 […]
and B) [19F]SqFLT to determine the effect on [18F]FLT uptake. HCT116 cells (at 60 – 70 % […]
for 20 min prior to co-incubation with [18F]FLT (0.74 MBq). Radioactive uptake normalised […]

HCT116^shTMPK− cells = test: In vitro cell uptake of radiotracer in TMPK knockdown HCT116^shTMPK− cells; assay type: cell-based, human; conditions: 0.74 MBq, 60 min incubation, n = 6, mean ± SEM
Method: (§4) HCT116 (human colon cancer; LGC Standards, Teddington, Middlesex, UK) and subsequent knockdown HCT116^shTMPK− cells were cultured in Roswell Park Memorial Institute Medium 1640 supplemented with 10% foetal bovine serum, 2% Penicillin-Streptomycin (5000 U mL^−1) and 1% L-Glutamine. Cells were maintained in a 5% CO2 humidified incubator at 37 °C and grown in 6-well plates at 300 000 cells per well or 1 500 000 cells (per 15 cm petri dish for HPLC) for the stated cell lines. All cells were grown for 24 h in a volume of 2 mL per well or 10 mL per petri dish unless stated otherwise. All cells were maintained at 60–70% confluence prior to experiments, passaged in our laboratory for fewer than 6 months on receipt and were tested mycoplasma free. Experiments were performed using cells under 10 passages.
Guide RNA (gRNA) sequences for CRISPR/Cas9 were generated from CRISPR design web site (http://crispr.mit.edu/), provided by the Feng Zhang Lab.[33] […]
[^18F]SqFLT (0.74 mBq per well) was added to individual wells and cells were incubated at 37 °C in a humidified atmosphere of 5% CO2 for 15, 30, 60, 90 and 120 min. […] Cell lysates were homogenized and transferred to radioactivity counting tubes. Radioactivity in each sample was counted using an auto-gamma counter (Perkin Elmer, London, UK). Total protein per sample was quantified using the Pierce™ BCA protein assay method. […]

HCT116^shTMPK− tumours = test: Dynamic PET imaging, HCT116^shTMPK− xenografts; assay type: in vivo, female BALB/c athymic nude mice; conditions: mutant HCT116^shTMPK− xenograft, 2–10 min post-injection, PET time–activity curve
Method: as §2
as §3, with “Cumulative images of the data were used for visualization of radiotracer uptake and to define tissue volumes of interest (VOIs) using Siemens Inveon Research Workplace software (Siemens Molecular Imaging, Inc. Knoxville, USA).” left out

[5] = Log D7.5 determination (shake flask method); assay type: physicochemical; conditions: octanol/PBS pH 7.5, mean ± SD, n = 3
Method: The hydrophilicity of [^18F]SqFLT (>90% RCP) was determined experimentally by its Log D7.5 using the shake flask method. […] Being a highly hydrophilic molecule, we were sceptical that [^18F]SqFLT would be cell permeable and aimed to determine this experimentally in radioactive cell uptake experiments.
To a 1.5 mL microcentrifuge tube was added PBS pH 7.5 (500 μL) and octanol (500 μL). The tube was shaken for 15 min, followed by centrifugation (13 000g, 5 min). [^18F]SqFLT (3 MBq) in PBS (<5% EtOH) was added and the samples shaken for 30 min, followed by centrifugation (13 000g, 5 min). Aliquots from the octanol layer and PBS layer were removed (100 μL) and placed in counting tubes. Radioactivity was measured using a γ-counter and the partition coefficient was calculated using Log D7.5 = log10[Oct/PBS]. The Log D7.5 value was reported as mean ± SD (n = 3, triplicate analysis).

[6] = target: T1, ABCB1 transporter (HCT116 cells) (Homo sapiens, UniProt P08183); test: Efflux assay with verapamil; assay type: cell-based; conditions: verapamil 3 μM, 1 h pre-incubation then 1 h co-incubation
T1 construct: endogenous in cells; host or cells: HCT116 cells
Method: HCT116 cells were plated and maintained at 60–70% confluence in complete media conditions as previously described. Following 24 h, cell media was aspirated and treated with media containing 3 μM verapamil for 1 h prior to co-incubation with 0.74 mBq of [^18F]SqFLT. Cells were subsequently incubated for a further 1 h before being lysed and gamma counted as previously described.
9.0 Determining if [18F]SqFLT is a substrate for multidrug resistance proteins
0.00 Control 1 h Verapamil
Figure 34. Uptake of [18F]SqFLT in HCT116 cells following treatment with Verapamil. HCT 116 cells were pre-incubated with Verapamil (3 µM) for 60 min followed by co-incubated with [18F]SqFLT (0.74 MBq). One-way Anova statistical analysis and Dunnets post hoc was performed for n = 5 samples.
10.0 Time activity curves (TAC)
Figure 35. Time-activity curves derived from region-of-interest analysis of PET imaging data (including detail of uptake kinetics between 0-5 min of [18F]SqFLT injection) in bladder, kidneys and gallbladder. Data represent mean ± SEM (n>5) and is expressed as % of injected […]
1 M. Yun, S. J. Oh, H. J. Ha, J. S. Ryu and D. H. Moon, Nucl. Med. Biol., 2003, 30, 151–
2 C. N. Tetzlaff, I. Schwope, C. F. Bleczinski, J. A. Steinberg and C. Richert, Tetrahedron
(also on this page, place not known: [18F]-SqFLT (% ID/mg protein) uptake of 4215–4218.)
(1 picture or pasted object on this page, not shown here)

WT HCT116 cells = test: In vitro cell uptake of radiotracer in WT HCT116 cells; assay type: cell-based, human
Method: as §4
[^18F]SqFLT (0.74 mBq per well) was added to individual wells and cells were incubated at 37 °C in a humidified atmosphere of 5% CO2 for 15, 30, 60, 90 and 120 min. Following incubation, cells were washed three times with 1× PBS and lysed once ice for 15 min using RIPA buffer (1 mL per well). Cell lysates were homogenized and transferred to radioactivity counting tubes. Radioactivity in each sample was counted using an auto-gamma counter (Perkin Elmer, London, UK). Total protein per sample was quantified using the Pierce™ BCA protein assay method. Decay corrected counts were normalized to protein concentration as percentage incubated dose per milligram of cellular protein (%ID per mg protein) in each sample.

T1 sequence (P08183 whole entry): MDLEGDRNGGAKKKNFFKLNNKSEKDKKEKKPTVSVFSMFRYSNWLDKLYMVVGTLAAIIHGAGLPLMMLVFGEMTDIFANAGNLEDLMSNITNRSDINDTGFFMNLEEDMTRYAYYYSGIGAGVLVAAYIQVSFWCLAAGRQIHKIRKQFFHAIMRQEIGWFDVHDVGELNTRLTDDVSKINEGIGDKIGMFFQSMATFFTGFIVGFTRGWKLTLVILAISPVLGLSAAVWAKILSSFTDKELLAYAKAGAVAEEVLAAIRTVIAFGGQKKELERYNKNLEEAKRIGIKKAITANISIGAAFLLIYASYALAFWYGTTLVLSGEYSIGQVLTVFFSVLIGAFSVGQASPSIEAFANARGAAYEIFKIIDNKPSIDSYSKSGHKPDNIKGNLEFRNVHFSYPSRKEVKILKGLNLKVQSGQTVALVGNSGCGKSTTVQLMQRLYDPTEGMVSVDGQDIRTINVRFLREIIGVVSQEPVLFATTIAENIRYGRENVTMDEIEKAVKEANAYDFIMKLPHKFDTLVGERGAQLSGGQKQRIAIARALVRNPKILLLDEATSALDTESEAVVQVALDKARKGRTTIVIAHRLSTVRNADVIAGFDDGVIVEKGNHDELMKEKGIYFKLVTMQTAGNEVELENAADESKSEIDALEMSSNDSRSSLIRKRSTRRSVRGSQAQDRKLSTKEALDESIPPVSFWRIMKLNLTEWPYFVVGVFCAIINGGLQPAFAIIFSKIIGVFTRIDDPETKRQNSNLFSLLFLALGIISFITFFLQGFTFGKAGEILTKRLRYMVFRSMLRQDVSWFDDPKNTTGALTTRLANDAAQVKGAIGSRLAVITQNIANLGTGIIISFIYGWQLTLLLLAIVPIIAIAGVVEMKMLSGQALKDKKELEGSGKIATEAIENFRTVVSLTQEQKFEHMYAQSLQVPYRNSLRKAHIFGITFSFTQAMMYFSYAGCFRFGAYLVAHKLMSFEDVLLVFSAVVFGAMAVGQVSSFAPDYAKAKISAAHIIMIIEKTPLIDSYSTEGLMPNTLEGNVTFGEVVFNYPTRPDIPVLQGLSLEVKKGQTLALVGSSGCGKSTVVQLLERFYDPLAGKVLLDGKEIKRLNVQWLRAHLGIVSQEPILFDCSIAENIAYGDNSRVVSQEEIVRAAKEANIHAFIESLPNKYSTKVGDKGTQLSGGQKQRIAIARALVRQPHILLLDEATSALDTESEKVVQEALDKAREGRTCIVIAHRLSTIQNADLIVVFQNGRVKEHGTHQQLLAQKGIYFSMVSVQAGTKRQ

Compound: 3′-[^18F]fluorothymidine-5′-monophosphate [[^18F]FLTMP]
monophosphate pKa ([1]; first value): 1.6
monophosphate pKa ([1]; second value): 6.6

Compound: O=c1c(O)c(NCc2ccccc2)c1=O [3-(benzylamino)-4-hydroxycyclobut-3-ene-1,2-dione]
permeability ([2]; PAMPA): significantly higher permeability compared to a phosphate analogue
Log D7.4 ([2]; pH 7.4): −1.4

metabolism in human liver microsomes [3]: no metabolism over 60 min
peak radiotracer uptake in tumour (WT HCT116 tumours; WT HCT116 xenograft, 2–10 min post-injection, PET time–activity curve): 2.69 ± 0.12 % ID g^−1
time of peak radiotracer uptake in tumour (WT HCT116 tumours; post-injection, WT and mutant xenografts, 60 min dynamic PET scan): 2 to 10 min
peak radiotracer uptake in tumour (HCT116^shTMPK− tumours): 1.58 ± 0.12 % ID g^−1
logD [5]: -2.9 ± 0.24
effect of verapamil on radiotracer uptake [6]: did not change radiotracer uptake
Compound: Cc1cn([C@H]2C[C@H]([18F])[C@@H](CNc3c(O)c(=O)c3=O)O2)c(=O)[nH]c1=O [[^18F]SqFLT, 3′-[^18F]fluorothymidine-5′-squaryl]
route of elimination (WT HCT116 tumours; mice, PET time-activity curves): eliminated through the kidney, liver, and bladder
dependence of uptake on TK1 and nucleoside transporters (ENT1/2) ([4]; inferred from competition of [^19F]SqFLT (1–10 μg mL^−1) with [^18F]FLT): independent of TK1 and nucleoside transporters (ENT1/2)
uptake of [^18F]SqFLT (HCT116^shTMPK− cells): 0.14 ± 0.04 % ID g^−1
tracer uptake in vitro (WT HCT116 cells; HCT116 and HCT116^shTMPK− cells, as summed up in the abstract): < 0.3 % ID mg^−1
uptake of [^18F]SqFLT (WT HCT116 cells; WT HCT116, 0.74 MBq, 60 min incubation, n = 6, mean ± SEM): 0.24 ± 0.04 % ID mg^−1
drop of uptake (WT HCT116 cells; WT HCT116, between 15–120 min): 2 fold
time of peak uptake (WT HCT116 cells; WT HCT116, uptake kinetic profile over 120 min): 0 to 15 min

Compound: Cc1cn([C@H]2C[C@H](F)[C@@H](CNc3c(O)c(=O)c3=O)O2)c(=O)[nH]c1=O [[^19F]SqFLT, 5′-amino-5′-N-(2-hydroxy-3,4-dioxocyclobuten-1-yl)-5′,3′-deoxy-3′-fluoro-thymidine]
effect on [^18F]FLT uptake ([4]; 10^−3–10^1 μg mL^−1, 20 min before [^18F]FLT, then 1 h): did not inhibit [^18F]FLT uptake
